Test results taken from patent US7485655B2, “2-Aminothiazole allosteric enhancers of A1 adenosine receptors” (University of Virginia Patent Foundation, priority 2002, dated 2009).

Key:
[1] = test system: chicken chorioallantoic membrane (CAM); test: CAM assay, adenosine applied via Elvax pellets; format: in vivo; conditions: Elvax pellet with 3 mg adenosine, left in place seven days
Description: Fertile White Leghorn chicken eggs were obtained from Truslow Farms (Chesterfield, Mo.). Eggs were incubated at 37° for 7 days, then a 1.5 cm window was cut into each egg over the CAM. Pellets were applied to the CAMS and the windows closed with cellophane tape. Eggs were incubated until day 14 when the CAMS were fixed. […] The pellets were placed on the CAM where there were a few vessels present and were left in place for seven days. The CAMS then were fixed in 10% buffered formalin and vessels were counted under 20× magnification using a Nikon stereomicroscope. The quantitation of vascular number is presented as vascular density index VDI that was an adaptation of a method described by Harris-Hooker (Harris-Hooker et al., Neovascular Responses Induced by Cultured Aortic Endothelial Cells, J Cell. Phys., 114, 302-310, 1983). A plastic cover slip inscribed with 4, 5, 6, and 8 mm diameter concentric circles was centered over the adenosine pellet on the formalin-fixed CAM. The vascular density was judged by counting the numbers of the vessels which intersected the circles. This technique allowed counting of vessels down to 10-12 u in diameter. The positioning of the pellets on the CAM was randomized. […] Adenosine was delivered by other means as well.

[2] = test system: chicken chorioallantoic membrane (CAM); test: CAM assay, drug applied daily on filter paper disc; format: in vivo; conditions: for angiogenic response in the CAM (vessel density at edge of disk): 100 nM doses, 100 μl daily for 7 days on filter paper disk
human A3 receptor = target: T1, human A3 receptor (Homo sapiens, UniProt P0DMS8); conditions: cited from earlier work
T1 sequence (P0DMS8 1-318): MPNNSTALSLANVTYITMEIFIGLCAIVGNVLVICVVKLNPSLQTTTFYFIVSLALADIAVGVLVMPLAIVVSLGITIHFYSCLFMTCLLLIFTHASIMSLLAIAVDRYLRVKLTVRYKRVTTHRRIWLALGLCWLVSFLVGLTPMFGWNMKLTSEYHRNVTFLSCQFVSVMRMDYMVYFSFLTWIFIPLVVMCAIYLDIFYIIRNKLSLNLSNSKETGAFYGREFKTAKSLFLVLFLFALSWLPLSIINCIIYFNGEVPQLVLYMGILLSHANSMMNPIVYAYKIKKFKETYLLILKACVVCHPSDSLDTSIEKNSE

rat mesentery = test: Rat mesentery angiogenesis, chronic intraperitoneal infusion by Alzet osmotic pump; format: in vivo; conditions: chronic infusion via Alzet pumps into the peritoneal cavity of a rat
Description: Drug application into rat mesentery using infusion pumps. Alzet osmotic pumps were filled with drug or vehicle to a volume of 200 μl. The abdominal cavities of anesthetized 150 g Sprague-Dawley rats were incised and pumps implanted into the intraperitoneal cavity. The pumps delivered the drug at 1.0 μl/hr. After one week mesenteric samples were taken between vascular arcades along the length of the small bowel. Specimens were fixed and stained using a BS:lectin stain.
The chronic infusion was an advantage because the model is not an ischemic one, so steady long term administration of the PD 81,723 may help to augment the effects of lower concentrations of endogenous adenosine.

Nc1ncnc2c1ncn2[C@@H]1O[C@H](CO)[C@@H](O)[C@H]1O [Adenosine]
angiogenesis in the windowed CAM model (vascular density index) [1]: stimulated angiogenesis

CCNC(=O)[C@H]1O[C@@H](n2cnc3c(N)nc(NCCc4ccc(CCC(=O)O)cc4)nc32)[C@H](O)[C@@H]1O [CGS21680]
angiogenic response in the CAM (vessel density at edge of disk) [2]: No angiogenic response

OC[C@H]1O[C@@H](n2cnc3c(NC4CCCC4)ncnc32)[C@H](O)[C@@H]1O [CPA, Cyclopentyladenosine]
stimulation of angiogenesis in the CAM at low dose ([2]; 20 nM CPA alone): did not stimulate angiogenesis | angiogenic response in the CAM (vessel density at edge of disk) [2]: positive angiogenic response

CCOC(=O)C1=C(C)NC(c2ccccc2)=C(C(=O)OCc2ccccc2)C1C#Cc1ccccc1 (centres unmarked) [MRS1191]
selectivity for the human A3 over the A1 receptor (human A3 receptor): > 1300 fold

CCNC(=O)[C@H]1O[C@@H](n2cnc3c(N)ncnc32)[C@H](O)[C@@H]1O [NECA]
angiogenic response in the CAM (vessel density at edge of disk) [2]: positive angiogenic response

Cc1sc(N)c(C(=O)c2cccc(C(F)(F)F)c2)c1C [PD 81,723]
stimulation of angiogenesis in the CAM ([2]; 100 μM on filter paper disc, versus vehicle, no applied agonist): 10% | angiogenesis in mature mammalian animal model (rat mesentery): Stimulation of angiogenesis

CC(C)N(C)c1nc2c(N[C@@H]3CC4CC3CC4O)ncnc2n1C (some centres unmarked) [WRC-0571]
block of C17-stimulated angiogenesis in the CAM ([2]; C17 plus WRC-0571): blocked | block of angiogenic effect of CPA in the CAM ([2]; CPA 100 nM with 1 μM WRC-0571): completely blocked | block of the effects of PD on angiogenesis in the CAM ([2]; PD plus WRC-0571): completely blocked | block of the effects of endogenous adenosine in the CAM ([2]; in vivo): blocked the effects of endogenous adenosine

CCCn1c(=O)c2[nH]c(-c3ccc(OCC(=O)NCCN)cc3)nc2n(CCC)c1=O [XAC, xanthine amine congener]
effect on baseline angiogenesis in the CAM ([2]; nonselective antagonist alone, filter paper disk, four eggs): did not inhibit baseline angiogenesis

CNC(=O)[C@H]1O[C@@H](n2cnc3c(NCc4cccc(I)c4)ncnc32)[C@H](O)[C@@H]1O [m-MECA, N^6-iodobenzyl-5′-N-methyl-carboxamidoadenosine]
angiogenic response in the CAM (vessel density at edge of disk) [2]: positive angiogenic response
